Results as given in US8748462B2, “Spirocyclic GPR40 modulators” (Amgen Inc., priority 2008, dated 2014).

Experiments:
human GPR40 [1] = target: T1, human GPR40 (Homo sapiens, UniProt O14842); assay: Cell-based aequorin assay; conditions: CHO cells stably transfected with GPR40 and aequorin; 0.01% HSA
T1 construct: expressed in transfected cells; host or cells: CHO cells stably transfected with GPR40 and Aequorin
Description: Cell-based aequorin assays were employed to characterize the modulatory activity of compounds on the GPR40 signaling pathway. In an exemplary assay, CHO cells were stably transfected with both GPR40 and Aequorin (Euroscreen). Cells were detached from the tissue culture dish with 2 mL of trypsin (0.25% (w/v)). Trypsinization was halted with 28 mL of Hanks Buffered Salt Solution containing 20 mM Hepes (H/HBSS) and 0.01% fatty acid-free human serum albumin (HSA). Coelantrazine is added to 1 ug/mL, and the cells were incubated for 2 hours at room temperature. Compounds were dissolved in DMSO for preparation of 10 mM stock solutions. Compounds were diluted in H/HBSS containing 0.01% HSA. Serial dilutions of the test compounds were prepared to determine dose response.
Aequorin luminescence measurements were made using an EG&G Berthold 96-well luminometer, and the response was measured over a 20 second interval after cells and compounds were mixed. The maximum relative light units was plotted to determine dose response. The EC50 (effective concentration to reach 50% maximal response) was determined from the dose response plot.

human GPR40 [2] = target: T1, human GPR40; assay: Inositol phosphate accumulation assay; type: cell-based; conditions: A9 cell line stably transfected with GPR40; 1 hour at 37° C.; read-out: IP3 EC50
Description: An A9 cell line stably transfected with GPR40 (A9_GPR40) was used in IP accumulation assays. A9_GPR40 cells were plated in 96-well plates containing 20,000 cells/well in DMEM containing 10% FBS. After the cells attached to the well surface, the media was replaced with inositol free DMEM containing 10% dialyzed FBS and 1 μCi, mL ^3H-inositol and incubated for 16 hours. Compounds were diluted in HBSS/10 mM LiCl containing a desired amount of HSA and added directly to cells. Following 1 hour incubation at 37° C., the media was replaced with 100 μL of 20 mM formic acid to quench the reaction. 50 μL of the extract was then added to 100 μL of SPA beads, incubated overnight, and measured on a TopCount the following day.

T1 sequence (O14842 whole entry): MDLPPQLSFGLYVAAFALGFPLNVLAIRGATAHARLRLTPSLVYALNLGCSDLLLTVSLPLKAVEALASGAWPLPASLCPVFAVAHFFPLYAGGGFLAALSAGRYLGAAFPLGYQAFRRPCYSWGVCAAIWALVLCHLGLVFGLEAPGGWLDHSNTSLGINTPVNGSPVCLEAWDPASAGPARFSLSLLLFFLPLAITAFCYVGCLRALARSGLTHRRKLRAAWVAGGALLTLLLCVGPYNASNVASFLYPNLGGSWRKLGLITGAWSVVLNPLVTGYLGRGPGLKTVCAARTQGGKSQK

Structure (SMILES) | EC50 (human GPR40 [1]) | EC50 (human GPR40 [2])
COc1ccc(F)c(-c2ccc(COc3ccc4c(c3)[C@]3(CCC4)CC[C@@H]3C(=O)O)cc2[C@@H]2CCCC2(C)C)c1 (single isomer, unassigned) [Example 154] | 100 to 1000 nM | 10 to 100 nM
COc1cc(-c2ccc(COc3cc4c(cn3)CC[C@]43C[C@H]3C(=O)O)cc2[C@@H](OC)C(C)(C)C)c(F)cn1 (single isomer, unassigned) [Example 58, (2′R,5R)-3-({4-(5-Fluoro-2-methoxypyridin-4-yl)-3-1[(1S)-1-methoxy-2,2-dimethylpropyl]phenyl}methoxy)-6,7-dihydrospiro[cyclopenta[c]pyridine-5,1′-cyclopropane]-2′-carboxylic acid or (2′R,5R)-3-({4-(5-fluoro-2-methoxypyridin-4-yl)-3-[(1R)-1-methoxy-2,2-dimethylpropyl]phenyl}methoxy)-6,7-dihydrospiro[cyclopenta[c]pyridine-5,1′-cyclopropane]-2′-carboxylic acid] | 100 to 1000 nM | < 10 nM
COc1cc(-c2ccc(COc3cc(F)c4c(c3F)[C@]3(CC4)C[C@H]3C(=O)O)cc2[C@@H]2CCCC2(C)C)c(F)cn1 (single isomer, unassigned) [Example 41, (1R,2R)-6′-(3-((R)-2,2-dimethylcyclopentyl)-4-(5-fluoro-2-methoxypyridin-4-yl)benzyloxy)-4′,7′-difluoro-2′,3′-dihydrospiro[cyclopropane-1,1′-indene]-2-carboxylic acid or (1S,2S)-6′-(3-((R)-2,2-dimethylcyclopentyl)-4-(5-fluoro-2-methoxypyridin-4-yl)benzyloxy)-4′,7′-difluoro-2′,3′-dihydrospiro[cyclopropane-1,1′-indene]-2-carboxylic acid] | 100 to 1000 nM | < 10 nM
COc1ccc(F)c(-c2ccc(COc3ccc4c(c3)[C@]3(CC4)C[C@H]3C(=O)O)cc2C2(OC)CCCC2)c1 [Example 22] | 100 to 1000 nM | 10 to 100 nM
COc1ccc(F)c(-c2c(F)cc(COc3ccc4c(c3)[C@]3(CC4)C[C@H]3C(=O)O)cc2[C@@H]2CCCC2(C)C)c1 (single isomer, unassigned) [Example 18] | 100 to 1000 nM | < 10 nM
COc1ccc(F)c(-c2ccc(COc3ccc4c(c3)[C@]3(CC4)C[C@H]3C(=O)O)cc2[C@H]2CCCCC2(C)C)c1 (single isomer, unassigned) [Example 15] | 10 to 100 nM | < 10 nM
COc1ccc(F)c(-c2ccc(COc3ccc4c(c3F)[C@]3(CC4)C[C@H]3C(=O)O)cc2[C@@H](OC)C(C)(C)C)c1 (single isomer, unassigned) [Example 31] | 10 to 100 nM | < 10 nM
COc1ccc(F)c(-c2cc(F)c(COc3ccc4c(c3F)[C@]3(CCC4)C[C@H]3C(=O)O)cc2[C@H]2CCCC2(C)C)c1 (single isomer, unassigned) [Example 56] | 100 to 1000 nM | < 10 nM
COc1cc(-c2ccc(COc3ccc4c(c3)[C@]3(CC4)CC[C@@H]3C(=O)O)cc2[C@@H]2CCCC2(C)C)c(F)cn1 (single isomer, unassigned) [Example 150] | 100 to 1000 nM | < 10 nM
COc1ccc(F)c(-c2ccc(COc3ccc4c(c3)[C@]3(CC4)C[C@H]3C(=O)O)cc2CC(C)(C)C)c1 [Example 13] | 10 to 100 nM | < 10 nM
CCCCOc1cc(COc2ccc3c(c2)[C@]2(CC3)C[C@H]2C(=O)O)ccc1-c1cccc(OC)c1 [Example 25] | 100 to 1000 nM | 100 to 1000 nM
COc1cc(-c2ccc(COc3ccc4c(c3)C3(CCC4)CCC3C(=O)O)cc2[C@@H]2CCCC2(C)C)c(F)cn1 (single isomer, unassigned) [Example 156] | 100 to 1000 nM | 10 to 100 nM
COc1ccc(F)c(-c2ccc(COc3ccc4c(c3)C3(CC4)CCC3C(=O)O)cc2C(OC)C(C)(C)C)c1 (single isomer, unassigned) [Example 149] | 100 to 1000 nM | < 10 nM
COc1cc(-c2cc(F)c(COc3ccc4c(c3F)[C@]3(CCC4)C[C@H]3C(=O)O)cc2[C@H]2CCCC2(C)C)c(F)cn1 (single isomer, unassigned) [Example 57] | 100 to 1000 nM | < 10 nM
COc1cc(-c2cc(F)c(COc3ccc4c(c3)[C@]3(CC4)C[C@H]3C(=O)O)cc2[C@@H]2CCCC2(C)C)c(F)cn1 (single isomer, unassigned) [Example 17] | 10 to 100 nM | < 10 nM
COc1ccc(F)c(-c2ccc(COc3ccc4c(c3)[C@]3(CCC4)C[C@H]3C(=O)O)cc2[C@H]2CCCC2(C)C)c1 (single isomer, unassigned) [Example 47] | 10 to 100 nM | < 10 nM
COc1ccc(F)c(-c2ccc(COc3ccc4c(c3F)[C@]3(CCC4)C[C@H]3C(=O)O)cc2[C@H]2CCCC2(C)C)c1 (single isomer, unassigned) [Example 51] | 10 to 100 nM | < 10 nM

Structure (SMILES) | EC50 (human GPR40 [1]) | EC50 (human GPR40 [2])
COc1ccc(F)c(-c2ccc(COc3ccc4c(c3)C3(CC4)CCC3C(=O)O)cc2[C@@H]2CCCC2(C)C)c1 (single isomer, unassigned) [Example 148] | 100 to 1000 nM | 10 to 100 nM
COc1ccc(F)c(-c2ccc(COc3ccc4c(c3)[C@]3(CC4)C[C@H]3C(=O)O)cc2C2=CCCC2)c1 [Example 20] | 100 to 1000 nM | 10 to 100 nM
COc1cc(-c2ccc(COc3cc4c(cn3)CC[C@@]43C[C@@H]3C(=O)O)cc2[C@@H](OC)C(C)(C)C)c(F)cn1 (single isomer, unassigned) [Example 59, (2′S,5S)-3-({4-(5-Fluoro-2-methoxypyridin-4-yl)-3-[(1S)-1-methoxy-2,2-dimethylpropyl]phenyl}methoxy)-6,7-dihydrospiro[cyclopenta[c]pyridine-5,1′-cyclopropane]-2′-carboxylic acid or (2′S,5S)-3-({4-(5-fluoro-2-methoxypyridin-4-yl)-3-[(1R)-1-methoxy-2,2-dimethylpropyl]phenyl}methoxy)-6,7-dihydrospiro[cyclopenta[c]pyridine-5,1′-cyclopropane]-2′-carboxylic acid] | 100 to 1000 nM | 100 to 1000 nM
COc1cc(-c2ccc(COc3ccc4c(c3F)[C@]3(CCC4)C[C@H]3C(=O)O)cc2[C@@H]2CCCC2(C)C)c(F)cn1 [Example 55] | 100 to 1000 nM | < 10 nM
COc1ccc(F)c(-c2cc(F)c(COc3ccc4c(c3)[C@]3(CCC4)C[C@H]3C(=O)O)cc2[C@H]2CCCC2(C)C)c1 (single isomer, unassigned) [Example 45] | 100 to 1000 nM | < 10 nM
CC(C)COc1ccc(COc2ccc3c(c2)[C@]2(CCC3)C[C@H]2C(=O)O)cc1[C@@H]1CCCC1(C)C (single isomer, unassigned) [Example 130] | 1000 to 10000 nM | 100 to 1000 nM
COc1ccc(F)c(-c2c(F)cc(COc3ccc4c(c3)[C@]3(CC4)C[C@H]3C(=O)O)cc2[C@H]2CCCC2(C)C)c1 (single isomer, unassigned) [Example 16] | 10 to 100 nM | < 10 nM
COc1ccc(F)c(-c2ccc(COc3ccc4c(c3)[C@]3(CC4)CC[C@@H]3C(=O)O)cc2C2=CCCC2(C)C)c1 (single isomer, unassigned) [Example 151] | 100 to 1000 nM | 10 to 100 nM
COc1ccc(F)c(-c2ccc(COc3ccc4c(c3)[C@]3(CC4)C[C@H]3C(=O)O)cc2C2=CCCC2(C)C)c1 [Example 1] | 100 to 1000 nM | < 10 nM
COc1ccc(F)c(-c2ccc(COc3ccc4c(c3F)[C@]3(CCC4)C[C@H]3C(=O)O)cc2[C@@H](OC)C(C)(C)C)c1 (single isomer, unassigned) [Example 54] | 10 to 100 nM | < 10 nM
CO[C@@H](c1cc(COc2ccc3c(c2)[C@]2(CCC3)C[C@H]2C(=O)O)ccc1-c1cccc(Cl)c1)C(C)(C)C (racemic) [Example 137] | 100 to 1000 nM | 10 to 100 nM
COc1ccc(F)c(-c2ccc(COc3cc(F)c4c(c3F)[C@]3(CC4)C[C@H]3C(=O)O)cc2[C@H]2CCCC2(C)C)c1 (single isomer, unassigned) [Example 33] | 100 to 1000 nM | < 10 nM
COCCOc1ccc(COc2ccc3c(c2)[C@]2(CCC3)C[C@H]2C(=O)O)cc1[C@@H]1CCCC1(C)C (single isomer, unassigned) [Example 131] | 1000 to 10000 nM | 100 to 1000 nM
CCCCOc1cc(COc2ccc3c(c2)[C@]2(CC3)C[C@H]2C(=O)O)ccc1-c1cc(OC)ccc1F [Example 24] | 100 to 1000 nM | 10 to 100 nM
COc1ccc(F)c(-c2ccc(COc3ccc4c(c3)[C@@]3(CC4)[C@H](C(=O)O)[C@@H]3C)cc2[C@@H]2CCCC2(C)C)c1 (single isomer, unassigned) [Example 140] | 100 to 1000 nM | –
COc1ccc(F)c(-c2ccc(COc3cc(F)c4c(c3F)[C@@]3(CC4)C[C@@H]3C(=O)O)cc2[C@H]2CCCC2(C)C)c1 (single isomer, unassigned) [Example 34] | 1000 to 10000 nM | –
